The text below walks through data of paper PMC10530720, “Antimicrobial Activity and Toxicity of Newly Synthesized 4-[4-(benzylamino)butoxy]-9H-carbazole Derivatives” (International Journal of Molecular Sciences, 2023).

The term MIC denotes the smallest concentration in the dilution series that meets the test's criterion for growth inhibition. By melting point is commonly meant the temperature of the solid-liquid transition. In general, inhibition refers to the change of the read-out against control, counted positive when it falls.

Series [1] relates to E. coli. Details: method as in PMID 34884610. As to conditions: highest tested concentration; cited from earlier work.
In series [2] the test system is S. aureus. On the set-up: method as in PMID 34884610. As to conditions: cited from earlier work.
Series [3] deals with Aspergillus flavus ATCC 9643. Briefly: Broth microdilution (CLSI), growth, MIC and MFC. As to conditions: for MBC/MFC: A. flavus (MFC); for MIC: Aspergillus flavus, ATCC9643, A. flavus, 48 h at 37 °C. The class given is cell-based. On the technique in general: Dilution methods test growth across graded concentrations, often in twofold steps.
Series [4] has as its system Staphylococcus aureus ATCC 29213. Briefly: Broth microdilution (CLSI), growth, MIC and MBC. The class given is cell-based. As to conditions: for MBC/MFC: S. aureus (MBC); for MIC: ATCC29213, S. aureus, 24 h at 37 °C.
Series [5] concerns Candida albicans ATCC 10231. Briefly: Broth microdilution (CLSI), growth, MIC and MFC. The class given is cell-based. As to conditions: for MBC/MFC: C. albicans (MFC); for MIC: ATCC10231, C. albicans, 48 h at 37 °C.
For series [6], the system named is Pseudomonas aeruginosa ATCC 15442. Briefly: Broth microdilution (CLSI), growth, MIC and MBC. The class given is cell-based. The settings on record: for MBC/MFC: P. aeruginosa (MBC); for MIC: Pseudomonas aeruginosa, ATCC15442, P. aeruginosa, 24 h at 37 °C.
Series [7] has as its system Staphylococcus epidermidis ATCC 12228. Nature of the series: Broth microdilution (CLSI), growth, MIC and MBC. The class given is cell-based. As to conditions: for MBC/MFC: S. epidermidis (MBC); for MIC: Staphylococcus epidermidis, ATCC12228, S. epidermidis, 24 h at 37 °C.
For series [8], the system named is Escherichia coli ATCC 25922. Briefly: Broth microdilution (CLSI), growth, MIC and MBC. The class given is cell-based. As to conditions: for MBC/MFC: E. coli (MBC); for MIC: Escherichia coli, ATCC25922, E. coli, 24 h at 37 °C; for antimicrobial properties against E. coli, ranking in words: among compounds 1–10.
For series [9], the system named is C. albicans. Details: method as in PMID 18570365. The settings on record: cited from earlier work.
For series [10], the system named is A. fumigatus. On the set-up: method as in PMID 18570365. The settings on record: cited from earlier work.
Series [11] has as its system S. aureus. On the set-up: method as in Salih et al. 12. The settings on record: ref Salih et al. 12; cited from earlier work.
Series [12] relates to E. coli. Details: method as in Salih et al. 12. The settings on record: ref Salih et al. 12; cited from earlier work.
Series [13] concerns human fibroblast BJ ATCC CRL-2522 cell line. Nature of the series: Cytotoxic activity, MTT. The class given is cell-based. As to conditions: for toxicity to human fibroblasts, ranking in words: among compounds 1–10. As for the experimental part:
The cytotoxic properties of the tested compounds were examined using the human fibroblast BJ ATCC CRL-2522 cell line. The fibroblasts, with a final density of 1 × 10^5 cells per well, were suspended in EMEM medium containing FBS (10%) and antibiotics (penicillin, 100 IU/mL and streptomycin, 100 µg/mL), and incubated in 96-well microplates for 24 h in a humidified atmosphere with 5% CO2 at 37 °C. Next, the EMEM medium was replaced with a fresh medium, with the addition of the tested compounds in the concentration range of 1–64 µg/mL. Cell cultures without the tested derivatives were also prepared, as control samples. All the samples were incubated again for 24 h, under the same conditions. Then, the growth medium was removed from above the fibroblasts, and MTT solution (500 µg/mL) was added to each well. The plates were incubated for 4 h under the same conditions. The MTT solution was removed, and the wells were refilled with 50 µL of DMSO, to dissolve the formazan crystals produced. The spectrophotometric measurement of the samples was carried out at λ = 550 nm, using a SpectraMax i3x Multi-Mode Microplate Reader (Molecular Devices Ltd., Wokingham, UK).
The cell viability was calculated as a percentage of the control samples untreated with the tested compounds with a standard deviation. The experiment with n = 4 was carried out in four independent repetitions.

Each structure is given as a SMILES string. In brackets after ≈: the same amount, converted by molar mass. Like-named read-outs stand apart in the source and are kept apart here.

With `c1ccc(CNCCCCOc2cccc3[nH]c4ccccc4c23)cc1` [parent compound, 4-[4-(benzylamino)butoxy]-9H-carbazole], the “inhibition of E. coli growth” value in [1] was 10%. Also, the “reduction in bacterial growth (S. aureus)” value in series [2] (20 µg/mL) is reported as 22%. In series [2] (S. aureus), the MIC is 30 µg/mL (≈ 87.1 µM).
`Br.Fc1ccc(CNCCCCOc2cccc3[nH]c4ccccc4c23)cc1` [Compound 8, 4-[4-(4-fluorophenylmethylamino)butoxy]-9H-carbazole hydrobromide] had a melting point of 203 to 206 °C. Moreover, in [3], the MBC/MFC is more than 64 µg/mL and the MIC was more than 64 µg/mL. Also, the MBC/MFC in series [4] amounted to 64 µg/mL. The inhibition at 16 µg/mL in series [4] (Staphylococcus aureus, ATCC29213, 16 µg/mL, read-out: inhibition of S. aureus growth) stood at 65%. In addition, the MIC in series [4] (Staphylococcus aureus) was determined as 32 µg/mL. The same compound registered an MBC/MFC in series [5] of more than 64 µg/mL. This compound also had an MIC in series [5] (Candida albicans) of more than 64 µg/mL. For the same compound, in series [6], the MBC/MFC was more than 64 µg/mL and the MIC was more than 64 µg/mL. In [7], this compound came in with an MBC/MFC of 64 µg/mL and an MIC of 32 µg/mL. Further, the “reduction in E. coli growth” value in [8] (64 µg/mL (highest tested concentration)) came out at 50%. In series [8], the MBC/MFC is more than 64 µg/mL; the MIC was more than 64 µg/mL; the “antimicrobial properties against E. coli, ranking in words” value is on record as “strongest antimicrobial properties”.
Compound `Br.Fc1ccccc1CNCCCCOc1cccc2[nH]c3ccccc3c12` [Compound 6, 4-[4-(2-fluorophenylmethylamino)butoxy]-9H-carbazole hydrobromide] displayed a melting point of 180 to 182 °C. In [3], this compound returned an MBC/MFC of more than 64 µg/mL and an MIC of more than 64 µg/mL. This compound also yielded an MIC in series [4] (Staphylococcus aureus) of 64 µg/mL. Also, the MBC/MFC in series [5] was more than 64 µg/mL. Further, the inhibition at 64 µg/mL in [5] (Candida albicans, ATCC10231, 64 µg/mL (highest tested concentration), read-out: C. albicans growth inhibition) stood at 15%. In [5] (Candida albicans), this compound showed an MIC of more than 64 µg/mL. In [6], this compound displayed an MBC/MFC of more than 64 µg/mL and an MIC of more than 64 µg/mL. This compound yielded an MIC in series [7] of 64 µg/mL. In series [8], the MBC/MFC is more than 64 µg/mL; the MIC was more than 64 µg/mL; the “antimicrobial properties against E. coli, ranking in words” value is listed as “weakest antimicrobial activity”.
`CC1=NN(c2ccccc2)C(=O)C1=NNNC(=O)Cn1c2ccccc2c2ccccc21` [derivative 8, (4-[3-(9H-Carbazol-9-yl-acetyl)triazanylidene]-5-methyl-2-phenyl-2,4-dihydro-3H-pyrazol-3-one)]: the MIC in series [9] was 9.6 µg/mL (≈ 22.6 µM); in series [10], 10.3 µg/mL (≈ 24.3 µM); in [11], 1.1 µg/mL (≈ 2.59 µM); in [12], 6.4 µg/mL (≈ 15.1 µM).
On to `Fc1ccccc1CNCCCCOc1cccc2[nH]c3ccccc3c12` [Compound 1, 4-[4-(2-fluorophenylmethylamino)butoxy]-9H-carbazole], for which the melting point is 179 to 181 °C. In series [3], the MBC/MFC is given as more than 64 µg/mL and the MIC is more than 64 µg/mL. For the same compound, in [13] (32 µg/mL, human fibroblasts, 24 h), the “reduction of cell viability” value is given as “about 60%”. In addition, the “toxicity to human fibroblasts, ranking in words” value in [13] was “least toxic”. Besides, in [4] (Staphylococcus aureus), it took 64 µg/mL (≈ 177 µM) to inhibit growth (MIC). In series [5], this compound came in with an MBC/MFC of more than 64 µg/mL. In series [5] (Candida albicans), the MIC is more than 64 µg/mL. In [6], this compound registered an MBC/MFC of more than 64 µg/mL and an MIC of more than 64 µg/mL. This compound also showed an MIC in series [7] of 64 µg/mL (≈ 177 µM). In [8], this compound registered an MBC/MFC of more than 64 µg/mL and an MIC of more than 64 µg/mL.
`Br.Fc1cccc(CNCCCCOc2cccc3[nH]c4ccccc4c23)c1` [Compound 7, 4-[4-(3-fluorophenylmethylamino)butoxy]-9H-carbazole hydrobromide] returned a melting point of 181 to 183 °C. Also, in series [3], the MBC/MFC is given as more than 64 µg/mL and the minimum inhibitory concentration (MIC) was more than 64 µg/mL. In [4], this compound displayed an MBC/MFC of 64 µg/mL. In addition, inhibition of growth in series [4] (Staphylococcus aureus) (MIC) required 32 µg/mL. The compound further showed an MBC/MFC in series [5] of more than 64 µg/mL. The same compound registered an MIC in [5] (Candida albicans) of more than 64 µg/mL. In [6], this compound registered an MBC/MFC of more than 64 µg/mL and an MIC of more than 64 µg/mL. In series [7], this compound had an MBC/MFC of 64 µg/mL and an MIC of 32 µg/mL. In addition, in series [8], the MBC/MFC is recorded as more than 64 µg/mL and the MIC is more than 64 µg/mL.
Regarding `Br.C[C@@H](NCCCCOc1cccc2[nH]c3ccccc3c12)c1ccccc1` [Compound 9, (R)-4-[4-(1-phenylethylamino)butoxy]-9H-carbazole hydrobromide], the melting point lay in the range of 92 to 96 °C. In series [3], this compound gave an MBC/MFC of more than 64 µg/mL and an MIC of more than 64 µg/mL. The “decrease in cell viability” value in [13] (4 µg/mL, human fibroblasts, 24 h) was 40%. The “toxicity to human fibroblasts, ranking in words” value in [13] was “highest toxicity”. For the same compound, the MBC/MFC in series [4] is given as 64 µg/mL. For the same compound, in series [4] (Staphylococcus aureus), the MIC was found to be 32 µg/mL. Besides, the MBC/MFC in series [5] is on record as more than 64 µg/mL. In series [5] (Candida albicans), this compound displayed an MIC of more than 64 µg/mL. For the same compound, in [6], the MBC/MFC is reported as more than 64 µg/mL and the MIC was more than 64 µg/mL. In series [7], this compound had an MBC/MFC of 64 µg/mL and a minimal inhibitory concentration (MIC) of 32 µg/mL. In [8], this compound yielded an MBC/MFC of more than 64 µg/mL and an MIC of more than 64 µg/mL.
